Source: publication PMC9784874, “Inhibitors of HIV-1 and Cathepsin L Proteases Identified from the Insect Gall of Hypericum kouytchense” (Pharmaceuticals, 2022)

Target: T1, HIV-1 PR (Human immunodeficiency virus type 1 group M subtype B, UniProt P04585)
T1 construct: 10.0, 4.0, 3.2 and 17.0 µg/mL against HIV-1 protease
Assay: Fluorimetric HIV-1 protease inhibition assay
Format: biochemical
Conditions: not given
Experimental: (§1) The inhibitory activities against HIV-1, Cat L and Renin PRs were assayed by fluorimetric methods using our previously published protocols.

**Q.** Which IC50 does the source give for O=C1C[C@@H](c2ccc(O)c(O)c2)Oc2cc(O)cc(O)c21 [Eriodictyol, Eriodicytiol] here?
**A.** Its IC50 is 659 µM.

**Q.** Which IC50 does the source give for Cc1cc(O)c2c(=O)c3c(O)cc(O)c4c5c(O)cc(O)c6c(=O)c7c(O)cc(C)c8c1c2c(c34)c(c78)c65 [Hypericin] here?
**A.** Its IC50 is 3.57 µM.

**Q.** For O=c1c(O[C@@H]2O[C@H](CO)[C@H](O)[C@H](O)[C@H]2O)c(-c2ccc(O)c(O)c2)oc2cc(O)cc(O)c12 [Hyperoside], which IC50 is on record?
**A.** Its IC50 is 84 µM.

Same assay, conditions: 1000.0 µg/mL, n = 3

**Q.** Which “HIV-1 PR Inhi% at 1000.0 µg/mL” value does the source give for Oc1cc(O)c2c(c1)O[C@H](c1ccc(O)c(O)c1)[C@H](O)C2 [Epicatechin] here?
**A.** Its value is 66.0 ± 3.79%.

**Q.** Which “HIV-1 PR Inhi% at 1000.0 µg/mL” value does the source give for O=C1C[C@@H](c2ccc(O)c(O)c2)Oc2cc(O)cc(O)c21 [Eriodictyol, Eriodicytiol] here?
**A.** The value was 100.0 ± 4.98%.

**Q.** With Cc1cc(O)c2c(=O)c3c(O)cc(O)c4c5c(O)cc(O)c6c(=O)c7c(O)cc(C)c8c1c2c(c34)c(c78)c65 [Hypericin] as the molecule, how does the “HIV-1 PR Inhi% at 1000.0 µg/mL” value read?
**A.** Its value is 100.0 ± 7.87%.

**Q.** For O=c1c(O[C@@H]2O[C@H](CO)[C@H](O)[C@H](O)[C@H]2O)c(-c2ccc(O)c(O)c2)oc2cc(O)cc(O)c12 [Hyperoside], which “HIV-1 PR Inhi% at 1000.0 µg/mL” value is on record?
**A.** The value was 72.6 ± 1.40%.

**Q.** For O=C(/C=C/c1ccc(O)cc1)c1c(O)cc(O)cc1O [Naringenin chalcone], which “HIV-1 PR Inhi% at 1000.0 µg/mL” value is on record?
**A.** The value was 100.0 ± 1.96%.

**Q.** For O=c1c(O)c(-c2ccc(O)c(O)c2)oc2cc(O)cc(O)c12 [Quercetin], which “HIV-1 PR Inhi% at 1000.0 µg/mL” value is on record?
**A.** The value was 50.3 ± 1.40%.

**Q.** With C[C@@H]1O[C@@H](Oc2c(-c3ccc(O)c(O)c3)oc3cc(O)cc(O)c3c2=O)[C@H](O)[C@H](O)[C@H]1O [Quercitrin] as the molecule, how does the “HIV-1 PR Inhi% at 1000.0 µg/mL” value read?
**A.** Its value is 94.4 ± 7.86%.

**Q.** With C[C@@H]1O[C@@H](OC[C@H]2O[C@@H](Oc3c(-c4ccc(O)c(O)c4)oc4cc(O)cc(O)c4c3=O)[C@H](O)[C@@H](O)[C@@H]2O)[C@H](O)[C@H](O)[C@H]1O [Rutin] as the molecule, how does the “HIV-1 PR Inhi% at 1000.0 µg/mL” value read?
**A.** Its value is 24.8 ± 3.85%.

**Q.** For C[C@@H]1O[C@@H](Oc2cc(O)c3c(c2)O[C@H](c2ccc(O)c(O)c2)[C@@H](O)C3=O)[C@H](O)[C@H](O)[C@H]1O [Taxifolin-7-O-rhamnoside], which “HIV-1 PR Inhi% at 1000.0 µg/mL” value is on record?
**A.** Its value is 68.4 ± 5.45%.

Same assay, conditions: active compounds, n = 3; read-out: HIV-1 PR IC50 (converted)

**Q.** With Oc1cc(O)c2c(c1)O[C@H](c1ccc(O)c(O)c1)[C@H](O)C2 [Epicatechin] as the molecule, how does the IC50 read?
**A.** The IC50 was 2760 µM.

**Q.** For O=C(/C=C/c1ccc(O)cc1)c1c(O)cc(O)cc1O [Naringenin chalcone], which IC50 is on record?
**A.** Its IC50 is 121 µM.

**Q.** For C[C@@H]1O[C@@H](Oc2c(-c3ccc(O)c(O)c3)oc3cc(O)cc(O)c3c2=O)[C@H](O)[C@H](O)[C@H]1O [Quercitrin], which IC50 is on record?
**A.** Its IC50 is 44.6 µM.

**Q.** With C[C@@H]1O[C@@H](Oc2cc(O)c3c(c2)O[C@H](c2ccc(O)c(O)c2)[C@@H](O)C3=O)[C@H](O)[C@H](O)[C@H]1O [Taxifolin-7-O-rhamnoside] as the molecule, how does the IC50 read?
**A.** The IC50 was 1220 µM.

Target: Cat L PR (Homo sapiens, UniProt P07711)
Sequence (P07711 114-333): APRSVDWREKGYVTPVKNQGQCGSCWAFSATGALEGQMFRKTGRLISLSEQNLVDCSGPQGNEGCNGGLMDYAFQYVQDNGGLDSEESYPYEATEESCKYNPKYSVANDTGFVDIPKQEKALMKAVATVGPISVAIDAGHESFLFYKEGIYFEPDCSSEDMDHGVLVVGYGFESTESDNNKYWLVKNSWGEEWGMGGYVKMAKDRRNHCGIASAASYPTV
Assay: Fluorimetric cathepsin L protease inhibition assay
Format: biochemical
Conditions: 100.0 µg/mL, n = 3; read-out: Cat L PR Inhi% at 100.0 µg/mL
Experimental: as §1

**Q.** For Oc1cc(O)c2c(c1)O[C@H](c1ccc(O)c(O)c1)[C@H](O)C2 [Epicatechin], which inhibition at 100 µg/mL is on record?
**A.** Its inhibition at 100 µg/mL is -17.7 ± 2.35%.

**Q.** With O=C1C[C@@H](c2ccc(O)c(O)c2)Oc2cc(O)cc(O)c21 [Eriodictyol, Eriodicytiol] as the molecule, how does the inhibition at 100 µg/mL read?
**A.** The inhibition at 100 µg/mL was 14.3 ± 2.32%.

**Q.** With Cc1cc(O)c2c(=O)c3c(O)cc(O)c4c5c(O)cc(O)c6c(=O)c7c(O)cc(C)c8c1c2c(c34)c(c78)c65 [Hypericin] as the molecule, how does the inhibition at 100 µg/mL read?
**A.** Its inhibition at 100 µg/mL is 79.4 ± 2.02%.

**Q.** With O=c1c(O[C@@H]2O[C@H](CO)[C@H](O)[C@H](O)[C@H]2O)c(-c2ccc(O)c(O)c2)oc2cc(O)cc(O)c12 [Hyperoside] as the molecule, how does the inhibition at 100 µg/mL read?
**A.** The inhibition at 100 µg/mL was 11.8 ± 2.56%.

**Q.** With O=C(/C=C/c1ccc(O)cc1)c1c(O)cc(O)cc1O [Naringenin chalcone] as the molecule, how does the inhibition at 100 µg/mL read?
**A.** Its inhibition at 100 µg/mL is 22.2 ± 6.77%.

**Q.** For O=c1c(O)c(-c2ccc(O)c(O)c2)oc2cc(O)cc(O)c12 [Quercetin], which inhibition at 100 µg/mL is on record?
**A.** The inhibition at 100 µg/mL was -3.67 ± 6.59%.

**Q.** With C[C@@H]1O[C@@H](OC[C@H]2O[C@@H](Oc3c(-c4ccc(O)c(O)c4)oc4cc(O)cc(O)c4c3=O)[C@H](O)[C@@H](O)[C@@H]2O)[C@H](O)[C@H](O)[C@H]1O [Rutin] as the molecule, how does the inhibition at 100 µg/mL read?
**A.** The inhibition at 100 µg/mL was -4.81 ± 3.8%.

**Q.** For C[C@@H]1O[C@@H](Oc2cc(O)c3c(c2)O[C@H](c2ccc(O)c(O)c2)[C@@H](O)C3=O)[C@H](O)[C@H](O)[C@H]1O [Taxifolin-7-O-rhamnoside], which inhibition at 100 µg/mL is on record?
**A.** Its inhibition at 100 µg/mL is 18.1 ± 0.95%.

Same assay, conditions: read-out: Cat L PR Inhi% at 100.0 µg/mL

**Q.** With C[C@@H]1O[C@@H](Oc2c(-c3ccc(O)c(O)c3)oc3cc(O)cc(O)c3c2=O)[C@H](O)[C@H](O)[C@H]1O [Quercitrin] as the molecule, how does the inhibition at 100 µg/mL read?
**A.** Its inhibition at 100 µg/mL is 16.3 ± 3.24%.

Target: T2, human renin (Homo sapiens, UniProt P00797)
T2 sequence (P00797 67-406): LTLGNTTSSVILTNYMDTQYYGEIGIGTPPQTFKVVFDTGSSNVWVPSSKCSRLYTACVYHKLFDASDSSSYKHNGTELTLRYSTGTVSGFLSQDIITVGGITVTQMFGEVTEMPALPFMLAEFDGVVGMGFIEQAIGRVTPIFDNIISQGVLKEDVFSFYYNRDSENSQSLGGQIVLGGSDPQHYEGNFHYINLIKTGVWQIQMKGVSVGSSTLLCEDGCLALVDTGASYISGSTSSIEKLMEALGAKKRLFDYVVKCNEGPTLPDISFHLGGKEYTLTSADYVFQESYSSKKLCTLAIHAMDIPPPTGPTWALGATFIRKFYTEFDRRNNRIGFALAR
Assay: Fluorimetric renin protease inhibition assay
Format: biochemical
Conditions: extracts, n = 3
Experimental: as §1

**Q.** For Ac–HPFV–(Sta)–LF–NH2 [Renin inhibitor], which “IC50 Renin PR” value is on record?
**A.** The value was 0.9 µg/mL.

Test system: HIV replication in H9 lymphocytes
Assay: not given
Parameters: method as in PMID 15987189
Conditions: cited from earlier work

**Q.** Which “therapeutic index (TI)” value does the source give for C=C[C@@]1(C)COC(=O)[C@]12O[C@]1(c3ccccc3)[C@H](C2=O)[C@H]2[C@H]([C@H](C)CCC=C(C)C)CC=C(C)[C@H]21 [Biyouyanagin A] here?
**A.** The value was “higher than 31.3”.
